Measured values from patent US8546377B2 (AbbVie Inc., priority 2009, dated 2013).
Read-outs that look alike come from different tables or passages of the source.

Legend:
[1] = molecular target: T1, 5HT2C receptors (Homo sapiens, UniProt P28335); experiment: Human 5-HT2C functional assay in CHO-K1 cells (calcium flux, FLIPR); assay type: cell-based; design: expressed in transfected cells; host or cells: CHO-K1 cells; settings: for Emax: percentage relative to the effect of serotonin
T1 sequence (P28335 33-458): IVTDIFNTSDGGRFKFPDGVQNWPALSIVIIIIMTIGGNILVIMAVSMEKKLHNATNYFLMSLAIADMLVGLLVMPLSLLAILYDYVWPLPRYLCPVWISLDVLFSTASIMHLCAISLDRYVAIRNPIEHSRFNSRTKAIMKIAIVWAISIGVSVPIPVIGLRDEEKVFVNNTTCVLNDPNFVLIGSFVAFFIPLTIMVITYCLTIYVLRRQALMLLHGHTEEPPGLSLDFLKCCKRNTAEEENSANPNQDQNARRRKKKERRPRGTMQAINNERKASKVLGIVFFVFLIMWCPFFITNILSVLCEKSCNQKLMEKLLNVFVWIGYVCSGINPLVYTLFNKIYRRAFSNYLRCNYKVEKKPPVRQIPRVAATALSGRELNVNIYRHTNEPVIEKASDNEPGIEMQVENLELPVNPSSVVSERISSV
Experimental: (§1) (iii) Human 5-HT2C and 5-HT2B Functional Assay in CHO-K1 Cells
(§2) CHO-K1 cells over-expressing 5HT2C or 5HT2B receptors were grown in 1272 cm^2 flasks to 70-80% confluency in UltraCHO media supplemented with 1% dialyzed fetal bovine serum (FBS), 250 μg/mL zeocin, 100 U/mL penicillin/streptomycin, and 400 μg/mL geneticin. The cells were dissociated from the flasks using 0.05% trypsin, resuspended in freezing media and stored in liquid nitrogen until use. Calcium flux experiments were done using frozen cells. The cells were diluted in media containing 1% dialyzed FBS and 100 U/mL penicillin/streptomycin and plated into 384-well poly-D-Lysine coated plates (15,000 cells/well). Then the plates were incubated overnight in a cell incubator at 37° C., 5% CO2. On the next day, the growth media was replaced with media without FBS and further incubated overnight. On day three, the changes in intracellular Ca^2+ were determined using calcium sensitive fluorescent dye, Ca4 (MDS Analytical Technologies, Sunnyvale, Calif.) by loading 15 μL of diluted dye with 2.5 mM probenecid into the cells containing media and incubated at room temperature for 60 minutes in dark.
(§3) Fluorescence measurements were read at 25° C. at an excitation wavelength of 480 nm and an emission wavelength of 530 nm in FLIPR (MDS). Baseline fluorescence was measured for the first 10 seconds and then 15 μL of 4× concentrations of serotonin/test compounds was added to the cell plate. The fluorescence intensity was captured every second for the first 1 minute followed by every 5 seconds for an additional 2 minutes. The increase in fluorescent response was determined and was normalized to the response of serotonin. The concentration response of compounds was done from a starting concentration of 10 μM, 1:10 dilution across 6 wells with a final dimethyl sulfoxide concentration of 0.2% and was fitted using a 4-parameter logistic equation. The concentration at which a compound exerts half its maximal effect was named as ‘effective concentration 50’ or ‘EC50’.
(§4) Emax is the maximum functional response or efficacy expressed as a percentage relative to the effect of serotonin.

[2] = molecular target: T2, 5HT2B receptors (Homo sapiens, UniProt P41595); experiment: Human 5-HT2B functional assay in CHO-K1 cells (calcium flux, FLIPR); assay type: cell-based
T2 construct: expressed in transfected cells; host or cells: CHO-K1 cells
T2 sequence (P41595 whole entry): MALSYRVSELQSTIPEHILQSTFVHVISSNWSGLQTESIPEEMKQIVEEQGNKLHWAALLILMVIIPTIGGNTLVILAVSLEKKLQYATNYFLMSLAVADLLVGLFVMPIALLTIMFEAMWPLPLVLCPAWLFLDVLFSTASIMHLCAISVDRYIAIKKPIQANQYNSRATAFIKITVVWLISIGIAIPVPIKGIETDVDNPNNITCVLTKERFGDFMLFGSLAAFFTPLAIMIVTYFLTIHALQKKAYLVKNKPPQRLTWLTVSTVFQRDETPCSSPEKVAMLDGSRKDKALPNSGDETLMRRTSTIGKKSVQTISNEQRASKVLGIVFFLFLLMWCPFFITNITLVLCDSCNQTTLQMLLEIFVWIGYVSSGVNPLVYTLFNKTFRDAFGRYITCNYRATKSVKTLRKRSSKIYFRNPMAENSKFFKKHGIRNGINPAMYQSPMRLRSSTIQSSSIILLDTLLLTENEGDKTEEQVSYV
Experimental: as §1, §2, §3, §4

[3] = CHO-K1 cells over-expressing 5HT2C, calcium flux, read-out: EC50 (μM), 5-HT2c Agonist Activity
[4] = CHO-K1 cells, read-out: Emax (%), 5-HT2c Agonist Activity
[5] = CHO-K1 cells over-expressing 5HT2B, calcium flux, read-out: EC50 (μM), 5-HT2B Agonist Activity
[6] = CHO-K1 cells, percentage relative to the effect of serotonin, read-out: Emax (%), 5-HT2B Agonist Activity
[7] = CHO-K1, read-out: Emax (%), 5-HT2c Agonist Activity, CHO-K1 cells
[8] = CHO-K1, read-out: Emax (%), 5-HT2B Agonist Activity

EC50 [1, 3] [µM] | Emax [1, 4] [%] | EC50 [2, 5] [µM] | Emax [2, 6] [%] | Compound | EC50 [1] [µM] | Emax [1, 7] [%] | EC50 [2] [µM] | Emax [2, 8] [%]
1 | 50 | > 10 |  | CCN1C(=O)CC2CN(C)CCN2c2ccc(Cl)cc21 (stereo not shown) [Example 78, 9-chloro-7-ethyl-3-methyl-1,2,3,4,4a,5-hexahydropyrazino[1,2-a][1,5]benzodiazepin-6(7H)-one] |  |  |  | 
0.6 | 90 | > 10 |  | CCN1CCC2CN(C)CCN2c2ccc(Cl)cc21 (stereo not shown) [Example 82, 9-chloro-7-ethyl-3-methyl-1,2,3,4,4a,5,6,7-octahydropyrazino[1,2-a][1,5]benzodiazepine] |  |  |  | 
0.07 | > 120 | > 10 |  | Cc1cccc(-c2ccc3c(c2)N2CCNCC2CC(=O)N3)c1 (stereo not shown) [Example 89, 10-(3-methylphenyl)-1,2,3,4,4a,5-hexahydropyrazino[1,2-a][1,5]benzodiazepin-6(7H)-one] |  |  |  | 
0.02 | > 120 | > 10 |  | O=C1CC2CNCCN2c2cc(-c3cccc(C(F)(F)F)c3)ccc2N1 (stereo not shown) [Example 90, 10-[3-(trifluoromethyl)phenyl]-1,2,3,4,4a,5-hexahydropyrazino[1,2-a][1,5]benzodiazepin-6(7H)-one] |  |  |  | 
0.01 | > 120 | > 10 |  | CCc1cccc(-c2ccc3c(c2)N2CCNCC2CC(=O)N3)c1 (stereo not shown) [Example 91, 10-(3-ethylphenyl)-1,2,3,4,4a,5-hexahydropyrazino[1,2-a][1,5]-benzodiazepin-6(7H)-one] |  |  |  | 
0.02 | > 120 | > 10 |  | CC(C)c1cccc(-c2ccc3c(c2)N2CCNCC2CC(=O)N3)c1 (stereo not shown) [Example 92, 10-(3-isopropylphenyl)-1,2,3,4,4a,5-hexahydropyrazino[1,2-a][1,5]benzodiazepin-6(7H)-one] |  |  |  | 
0.007 | > 120 | > 10 |  | O=C1CC2CNCCN2c2cc(-c3cccc(OC(F)(F)F)c3)ccc2N1 (stereo not shown) [Example 93, 10-[3-(trifluoromethoxy)phenyl]-1,2,3,4,4a,5-hexahydropyrazino[1,2-a][1,5]benzodiazepin-6(7H)-one] |  |  |  | 
0.008 | > 120 | > 10 |  | CC(C)Oc1cccc(-c2ccc3c(c2)N2CCNCC2CC(=O)N3)c1 (stereo not shown) [Example 94, 10-(3-isopropoxyphenyl)-1,2,3,4,4a,5-hexahydropyrazino[1,2-a][1,5]benzodiazepin-6(7H)-one] |  |  |  | 
0.02 | > 120 | > 10 |  | O=C1CC2CNCCN2c2cc(-c3cccc(OCc4ccccc4)c3)ccc2N1 (stereo not shown) [Example 95, 10-[3-(benzyloxy)phenyl]-1,2,3,4,4a,5-hexahydropyrazino[1,2-a][1,5]benzodiazepin-6(7H)-one] |  |  |  | 
0.02 | > 120 | 0.7 | 20 | O=C1CC2CNCCN2c2cc(COc3ccccc3)ccc2N1 (stereo not shown) [Example 111, 10-(phenoxymethyl)-1,2,3,4,4a,5-hexahydropyrazino[1,2-a][1,5]benzodiazepin-6(7H)-one] |  |  |  | 

Continued, compound first:

Compound | EC50 [1, 3] [µM] | Emax [1, 4] [%] | EC50 [2, 5] [µM] | Emax [2, 6] [%] | EC50 [1] [µM] | Emax [1, 7] [%] | EC50 [2] [µM] | Emax [2, 8] [%]
O=C1CC2CNCCN2c2cc(-c3ccsc3)ccc2N1 (stereo not shown) [Example 72, 10-(3-thienyl)-1,2,3,4,4a,5-hexahydropyrazino[1,2-a][1,5]benzodiazepin-6(7H)-one] | 0.07 | > 120 | 2 | 20 |  |  |  | 
O=C1CC2CNCCN2c2cc(-c3cccc(-n4cccn4)c3)ccc2N1 (stereo not shown) [Example 73, 10-[3-(1H-pyrazol-1-yl)phenyl]-1,2,3,4,4a,5-hexahydropyrazino[1,2-a][1,5]benzodiazepin-6(7H)-one] | 0.03 | 110 | > 10 |  |  |  |  | 
O=C1CC2CNCCN2c2cc(-c3ccc(F)cc3)ccc2N1 (stereo not shown) [Example 74, 10-(4-fluorophenyl)-1,2,3,4,4a,5-hexahydropyrazino[1,2-a][1,5]benzodiazepin-6(7H)-one] | 0.07 | 100 | > 10 |  |  |  |  | 
O=C1CC2CNCCN2c2cc(-c3cc4ccccc4s3)ccc2N1 (stereo not shown) [Example 75, 10-(1-benzothiophen-2-yl)-1,2,3,4,4a,5-hexahydropyrazino[1,2-a][1,5]benzodiazepin-6(7H)-one] | 1 | 80 | > 10 |  |  |  |  | 
CCN1C(=O)CC2CNCCN2c2ccc(Cl)cc21 (stereo not shown) [Example 77, 9-chloro-7-ethyl-1,2,3,4,4a,5-hexahydropyrazino[1,2-a][1,5]-benzodiazepin-6(7H)-one] | 0.2 | 100 | > 10 |  |  |  |  | 
CN1CCN2c3cccc(F)c3NC(=O)CC2C1 (stereo not shown) [Example 79, 8-fluoro-3-methyl-1,2,3,4,4a,5-hexahydropyrazino[1,2-a][1,5]benzodiazepin-6(7H)-one] |  |  |  |  | 0.03 | 100 | > 10 | 
CN1C(=O)CC2CNCCN2c2ccc(Cl)cc21 (stereo not shown) [Example 80, 9-chloro-7-methyl-1,2,3,4,4a,5-hexahydropyrazino[1,2-a][1,5]benzodiazepin-6(7H)-one] | 0.6 |  | > 10 |  |  | 100 |  | 
CN1CCC2CNCCN2c2ccc(Cl)cc21 (stereo not shown) [Example 81, 9-chloro-7-methyl-1,2,3,4,4a,5,6,7-octahydropyrazino[1,2-a][1,5]benzodiazepine] |  |  |  |  | 0.05 | > 120 | 1 | 20
O=C1C[C@@H]2CNCCN2c2cccc(F)c2N1 [Example 83, (4aR)-8-fluoro-1,2,3,4,4a,5-hexahydropyrazino[1,2-a][1,5]benzodiazepin-6(7H)-one] |  |  |  |  | 0.763 | > 120 | 1.05 | 27
CN1CCN2c3cc(Cl)ccc3NC(=O)C[C@H]2C1 [Example 84, (4aS)-10-chloro-3-methyl-1,2,3,4,4a,5-hexahydropyrazino[1,2-a][1,5]benzodiazepin-6(7H)-one] |  |  |  |  | 0.067 | 90 | > 10 | 
O=C1C[C@H]2CNCCN2c2cccc(F)c2N1 [Example 85, (4aS)-8-fluoro-1,2,3,4,4a,5-hexahydropyrazino[1,2-a][1,5]benzodiazepin-6(7H)-one] |  |  |  |  | 0.0051 | > 120 | > 10 | 
O=C1C[C@H]2CNCCN2c2c(F)cccc2N1 [Example 86, (4aS)-11-fluoro-1,2,3,4,4a,5-hexahydropyrazino[1,2-a][1,5]benzodiazepin-6(7H)-one] |  |  |  |  | 0.008 | > 120 | > 10 | 
O=C1C[C@@H]2CNCCN2c2c(F)cccc2N1 [Example 87, (4aR)-11-fluoro-1,2,3,4,4a,5-hexahydropyrazino[1,2-a][1,5]benzodiazepin-6(7H)-one] |  |  |  |  | 0.9 | > 120 | > 10 | 
CN1CCN2c3cccc(F)c3NC(=O)C[C@H]2C1 [Example 88, (4aS)-8-fluoro-3-methyl-1,2,3,4,4a,5-hexahydropyrazino[1,2-a][1,5]benzodiazepin-6(7H)-one] |  |  |  |  | 0.03 | > 120 | > 10 | 
CC(C)COc1cccc(-c2ccc3c(c2)N2CCNCC2CC(=O)N3)c1 (stereo not shown) [Example 96, 10-(3-isobutoxyphenyl)-1,2,3,4,4a,5-hexahydropyrazino[1,2-a][1,5]benzodiazepin-6(7H)-one] | 0.02 | > 120 | > 10 |  |  |  |  | 
O=C1CC2CNCCN2c2cccc(Cl)c2N1 (stereo not shown) [Example 110, 8-chloro-1,2,3,4,4a,5-hexahydropyrazino[1,2-a][1,5]benzodiazepin-6(7H)-one] |  |  |  |  | 0.005 | > 120 | > 10 | 
